Series [1] in a line: in vitro. It counts as cell-based, human. Conditions: human. Here is the method: (§1) The haemolytic activity of the 24 structurally related peptides (Table 1) was evaluated in erythrocytes from four different species (human, canine, bovine and rat) employing standard methodology. The subsequent release of haemoglobin was used to assess haemolytic activity as function of peptide and peptidomimetic concentration, with concentrations ranging from 0.15 to 150 µM (Presented in whole in Supplementary information Table S1–S4).
(§2) Human and rat (Sprague–Dawley) blood samples were purchased by Bioreclamation IVT (Westbury, NY, USA), collected in tubes containing heparin as anticoagulant and stored at 4 °C before use. Dog and bovine whole blood was collected from in-house animals at Zoetis Animal Health, Kalamazoo, Michigan and stored at 4 °C in tubes containing heparin as anticoagulant. 10 mL of each whole blood sample were centrifuged at 1,500 × g for 5 min and the resulting plasma fraction was removed from the samples. The pellets were washed with an equal volume (10 mL) of saline, mixing by inversion. The centrifuging and washing steps were repeated 5 times. After the last washing step, a volume of PBS was added, and the resulting samples were diluted 1:10 with PBS to yield an RBC concentration of ~ 5 × 10^8 RBC/mL. The assay was performed in a 384-well polypropylene microplate (Greiner 784201, Greiner Bio-One International, GMBH) through a Bravo Liquid Handling Platform 384 system (Agilent Technologies, Santa Clara, CA, USA) according to the previously published procedures. The compounds were tested in serial 1:1 dilutions in PBS, with final concentrations ranging from 150 to 1.2 µM. Melittin was used as reference lytic peptide. 1% TritonX100 and PBS were used as positive and negative (diluent) controls, respectively. The final concentrations were obtained by adding to the wells 7 µL of each solution, melittin or PBS, followed by 63 µL of RBCs to each well. The plate was sealed, shaken on a plate shaker for 20 s, incubated for one hour at 37 °C. Finally, it was centrifuged at 1,500 × g for 5 min at room temperature. 60 µL of supernatants were removed from all plate wells via a Bravo 384 robot and transferred to a flat-bottomed 384-well plate (Greiner UV-Star #7810801, Greiner Bio-One International, GMBH). The plate was centrifuged at 1,000 g for 1 min to remove air bubbles and optical density was measured at 405 nm using a plate reader. Percentage of haemolysis was calculated with the following equation: %haemolysis=(absorbance of test sample)-absorbance of diluent/absorbance of positive control-absorbance of diluent×100.

The next series deals with human erythrocytes. Kind of series: in vitro. It counts as cell-based. Conditions: for IC10 haemolysis: human erythrocytes; for IC50: red cells of human. The method, then:
as §1, §2

Series [2] is described as follows: in vitro. It counts as cell-based, dog. Conditions: dog. Here is the method: as §1, §2
For a further series, the system named is canine erythrocytes. Kind of series: in vitro. It counts as cell-based, dog. Conditions: for IC10 haemolysis: canine erythrocytes; for IC50: red cells of canine. The method, then: as §1, §2
A short description of series [3]: in vitro. The series is classed as cell-based, rat (Sprague–Dawley). Particulars: Sprague-Dawley, rat. Here is the method:
as §1, §2

Another series has as its system rat erythrocytes. Kind of series: in vitro. It counts as cell-based, rat (Sprague–Dawley). Conditions: for IC10 haemolysis: rat erythrocytes; for IC50: red cells of rat. The method, then: as §1, §2
Series [4] in a line: in vitro. It counts as cell-based, bovine. Conditions: bovine. The method, then: as §1, §2
Another series deals with bovine erythrocytes. The series is described as follows: in vitro. It counts as cell-based. Particulars: bovine erythrocytes. The method, then: as §1, §2
Series [5] deals with Staphylococcus pseudintermedius. Conditions: cited from earlier work.
For a further series, the system named is Staphylococcus aureus. Also noted: method as in PMID 30842436. Conditions: cited from earlier work.
Another series concerns Pseudomonas aeruginosa. Also noted: method as in PMID 30842436. Particulars: cited from earlier work.

Structures are written as SMILES. In brackets after ≈: the same amount, converted by molar mass. Square brackets hold non-standard residues; d marks the D form. Peptide text beside a SMILES is read from it. N(1-naphthylmethyl)Gly = O=C(O)CNCc1cccc2ccccc12; 2Nal = N[C@@H](Cc1ccc2ccccc2c1)C(=O)O; Nphe = O=C(O)CNCc1ccccc1; NBuGly = CCCCNCC(=O)O; Nlys = NCCCCNCC(=O)O

Take `CC(C)C[C@H](NC(=O)[C@H](CCCCN)NC(=O)[C@H](Cc1ccc2ccccc2c1)NC(=O)[C@H](Cc1ccccc1)NC(=O)[C@@H](N)Cc1ccc2ccccc2c1)C(=O)N[C@@H](CCCCN)C(=O)N[C@@H](CCCCN)C(N)=O` [Compound 13, (2-Nal)Ala-Phe-(2-Nal)Ala-Lys-Leu-Lys-Lys] (HELM PEPTIDE1{[N[C@@H](Cc1ccc2ccccc2c1)C(=O)[*:2]].F.[O=C([C@H](Cc1ccc2ccccc2c1)N[*:1])[*:2]].K.L.K.K.[am]}$$$$V2.0; N-terminus assumed): the hemolysis at 1 h, 150 µM in the series “in vitro [1]” is 55.3%; in “in vitro [2]” it was 27.4%; in the series “in vitro [3]” it was under 8%; in “in vitro [4]” it was 17.6%. For the same compound, the IC10 haemolysis in the series with human erythrocytes was 44.2 µM; in the series on canine erythrocytes it was 27.1 µM; in the series on rat erythrocytes, over 150 µM; in the series on bovine erythrocytes, 96.7 µM. For the same compound, the IC50 – broadly, the concentration that gives 50% inhibition – in the series on human erythrocytes was 136 µM; in the series with canine erythrocytes, over 150 µM; in the series with rat erythrocytes, over 150 µM. For the same compound, in series [5], the “MIC against Staphylococcus pseudintermedius” value was 4 to 8 µg/mL. Moreover, in the series with Staphylococcus aureus, the “MIC against Staphylococcus aureus” value is listed as 16 µg/mL (≈ 15.1 µM). Also, the “MIC against Pseudomonas aeruginosa” value in the series with Pseudomonas aeruginosa is listed as 64 µg/mL (≈ 60.6 µM).

Regarding `CCCCN(CC(=O)N[C@@H](CCCCN)C(=O)N(CC(=O)N(CC(=O)N(CC(N)=O)Cc1cccc2ccccc12)Cc1ccccc1)Cc1cccc2ccccc12)C(=O)[C@H](CCCCN)NC(=O)[C@@H](N)CCCCN` [Compound 14, Lys-Lys-(N-Bu)Gly-Lys-(N1-Nal)Gly-(N-Phe)Gly-(N1-Nal)Gly] (H-KK[NBuGly]K[N(1-naphthylmethyl)Gly][Nphe][N(1-naphthylmethyl)Gly]-NH2), the hemolysis at 1 h, 150 µM turned out to be 66.4% in “in vitro [1]”, 28.1% in the series “in vitro [2]”, 31.6% in the series “in vitro [3]” and 13.9% in the series “in vitro [4]”. In addition, the “Haemolytic activity (in words)” value with human erythrocytes is “amongst the top five most haemolytic compounds”. Besides, the IC10 haemolysis in the series with human erythrocytes turned out to be 54.0 µM; in the series with canine erythrocytes, 26.23 µM; in the series on rat erythrocytes it was 93.1 µM; in the series with bovine erythrocytes it was 123.9 µM. Also, the IC50 was 118 µM with human erythrocytes, over 150 µM with canine erythrocytes and over 150 µM with rat erythrocytes. In series [5], the “MIC against Staphylococcus pseudintermedius” value is 4 µg/mL (≈ 3.79 µM). Besides, in the series with Staphylococcus aureus, the “MIC against Staphylococcus aureus” value is 8 to 16 µg/mL. Further, the “MIC against Pseudomonas aeruginosa” value in the series on Pseudomonas aeruginosa is listed as 32 µg/mL (≈ 30.3 µM).

As to `CC(C)C[C@@H](NC(=O)[C@H](CCCCN)NC(=O)[C@H](CCCCN)NC(=O)[C@@H](N)CCCCN)C(=O)N[C@H](Cc1cccc2ccccc12)C(=O)N[C@H](Cc1ccc(O)cc1)C(=O)N[C@H](Cc1cccc2ccccc12)C(N)=O` [Compound 21, Lys-Lys-Lys-Leu-(1-Nal)Ala-Tyr-(1-Nal)Ala] (HELM PEPTIDE1{K.K.K.[dL].[O=C([C@@H](Cc1cccc2ccccc12)N[*:1])[*:2]].[dY].[O=C([C@@H](Cc1cccc2ccccc12)N[*:1])[*:2]].[am]}$$$$V2.0), the hemolysis at 1 h, 150 µM in the series “in vitro [1]” was under 8%; in “in vitro [2]”, 19.9%; in “in vitro [3]”, under 8%; in “in vitro [4]”, 16%. In addition, the IC10 haemolysis with human erythrocytes is given as over 150 µM; in the series with canine erythrocytes, 48.2 µM; in the series with rat erythrocytes it was over 150 µM; in the series on bovine erythrocytes, 109.7 µM. The IC50 with human erythrocytes, with canine erythrocytes and in the series with rat erythrocytes was over 150 µM throughout. Moreover, in [5], the “MIC against Staphylococcus pseudintermedius” value was 2 to 4 µg/mL. Further, the “MIC against Staphylococcus aureus” value with Staphylococcus aureus is 32 to 64 µg/mL. The “MIC against Pseudomonas aeruginosa” value in the series with Pseudomonas aeruginosa is recorded as 8 µg/mL (≈ 7.46 µM).

Regarding `CCCC[C@H](NC(=O)[C@H](CCCCN)NC(=O)[C@H](CCCCN)NC(=O)[C@@H](N)CCCCN)C(=O)N[C@@H](Cc1cccc2ccccc12)C(=O)N[C@@H](Cc1ccccc1)C(=O)N[C@@H](Cc1cccc2ccccc12)C(N)=O` [Compound 20, Lys-Lys-Lys-Nle-(1-Nal)Ala-Phe-(1-Nal)Ala] (HELM PEPTIDE1{K.K.K.[Nle].[O=C([C@H](Cc1cccc2ccccc12)N[*:1])[*:2]].F.[O=C([C@H](Cc1cccc2ccccc12)N[*:1])[*:2]].[am]}$$$$V2.0), the hemolysis at 1 h, 150 µM in the series “in vitro [1]” is 27.5%; in “in vitro [2]” it was 36%; in the series “in vitro [3]”, under 8%; in “in vitro [4]”, 20.1%. For the same compound, the IC10 haemolysis in the series with human erythrocytes was 91.3 µM; in the series on canine erythrocytes, 45.8 µM; with rat erythrocytes, over 150 µM; in the series on bovine erythrocytes, 94.7 µM. Also, the IC50 in the series on human erythrocytes, in the series with canine erythrocytes and in the series on rat erythrocytes was over 150 µM in each case. Besides, the “MIC against Staphylococcus pseudintermedius” value in series [5] is 16 to 32 µg/mL. Moreover, the “MIC against Staphylococcus aureus” value in the series with Staphylococcus aureus is recorded as over 64 µg/mL. The “MIC against Pseudomonas aeruginosa” value in the series with Pseudomonas aeruginosa is listed as 16 µg/mL (≈ 15.1 µM).

As to `CC(C)C[C@H](NC(=O)CN(CCCCN)C(=O)CN(CCCCN)C(=O)CNCCCCN)C(=O)N[C@@H](Cc1ccc2ccccc2c1)C(=O)N[C@@H](Cc1ccccc1)C(=O)N[C@@H](Cc1ccc2ccccc2c1)C(N)=O` [Compound 23, N-Lys-N-Lys-N-Lys-Leu-(2-Nal)Ala-Phe-(2-Nal)Ala] (H-[Nlys][Nlys][Nlys]L[2Nal]F[2Nal]-NH2), the hemolysis at 1 h, 150 µM in “in vitro [1]” was 35.9%; in “in vitro [2]”, 35.1%; in “in vitro [3]” it was under 8%; in “in vitro [4]”, 11.1%. Further, the “Haemolytic activity (in words)” value in the series on human erythrocytes is given as “not highly lytic”. For the same compound, the IC10 haemolysis in the series on human erythrocytes is on record as 98.7 µM; in the series on canine erythrocytes, 43.3 µM; with rat erythrocytes it was over 150 µM; in the series on bovine erythrocytes it was 145.8 µM. Further, the IC50 in the series on human erythrocytes, in the series on canine erythrocytes and in the series on rat erythrocytes was over 150 µM each time. For the same compound, in [5], the “MIC against Staphylococcus pseudintermedius” value is 2 to 4 µg/mL. In the series on Staphylococcus aureus, the “MIC against Staphylococcus aureus” value is listed as 32 µg/mL (≈ 30.3 µM). Moreover, in the series on Pseudomonas aeruginosa, the “MIC against Pseudomonas aeruginosa” value is on record as 32 µg/mL (≈ 30.3 µM).

Consider `CC(C)C[C@H](NC(=O)[C@H](CCCCN)NC(=O)[C@H](CCCCN)NC(=O)[C@@H](N)CCCCN)C(=O)N[C@@H](Cc1ccc2ccccc2c1)C(=O)N[C@@H](Cc1ccc(O)cc1)C(=O)N[C@@H](Cc1ccc2ccccc2c1)C(N)=O` [Compound 17, Lys-Lys-Lys-Leu-(2-Nal)Ala-Tyr-(2-Nal)Ala] (HELM PEPTIDE1{K.K.K.L.[O=C([C@H](Cc1ccc2ccccc2c1)N[*:1])[*:2]].Y.[O=C([C@H](Cc1ccc2ccccc2c1)N[*:1])[*:2]].[am]}$$$$V2.0), for which the hemolysis at 1 h, 150 µM amounted to 78.1% in “in vitro [1]”, 100% in the series “in vitro [2]”, 100% in “in vitro [3]” and 19.9% in “in vitro [4]”. Further, the IC10 haemolysis is reported as 61.1 µM in the series on human erythrocytes, 59.6 µM in the series on canine erythrocytes, 74.7 µM in the series with rat erythrocytes and 81.4 µM with bovine erythrocytes. In addition, the IC50 in the series with human erythrocytes was 109 µM; in the series on canine erythrocytes, 87 µM; in the series on rat erythrocytes, 87.7 µM. In addition, in series [5], the “MIC against Staphylococcus pseudintermedius” value was 16 µg/mL (≈ 14.9 µM). Also, in the series with Staphylococcus aureus, the “MIC against Staphylococcus aureus” value is listed as over 64 µg/mL. In the series on Pseudomonas aeruginosa, the “MIC against Pseudomonas aeruginosa” value was over 64 µg/mL.

The values above are taken from publication PMC7414031, “Correlation between hemolytic activity, cytotoxicity and systemic in vivo toxicity of synthetic antimicrobial peptides” (Scientific Reports, 2020).
